{
  "source": "patent US5292752A",
  "about": "“Antithrombotic compounds” (Merrell Dow Pharmaceuticals Inc., priority 1992, dated 1994)",
  "key": {"5HT2 receptor [1]": {"biological_target": "T1, 5HT2 receptor (Mus musculus, UniProt P35363)", "T1 construct": "from tissue; host or cells: whole living mouse (endogenous receptor of the brain)", "T1 sequence (P35363 whole entry)": "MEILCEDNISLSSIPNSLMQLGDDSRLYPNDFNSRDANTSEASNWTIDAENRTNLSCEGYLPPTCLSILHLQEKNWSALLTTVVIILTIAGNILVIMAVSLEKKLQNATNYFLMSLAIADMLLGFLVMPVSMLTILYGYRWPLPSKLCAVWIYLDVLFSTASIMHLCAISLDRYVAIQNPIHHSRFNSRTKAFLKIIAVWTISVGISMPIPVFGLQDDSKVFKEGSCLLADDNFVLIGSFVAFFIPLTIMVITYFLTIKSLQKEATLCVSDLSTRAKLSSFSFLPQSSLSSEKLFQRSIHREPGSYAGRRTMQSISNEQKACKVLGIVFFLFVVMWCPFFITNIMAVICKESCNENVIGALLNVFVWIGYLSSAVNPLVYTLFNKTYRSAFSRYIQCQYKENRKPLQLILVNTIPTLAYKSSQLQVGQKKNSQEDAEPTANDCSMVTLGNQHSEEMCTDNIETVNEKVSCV", "assay": "5-DMT head twitch test", "format": "in vivo", "conditions": "ip, mice, 5-DMT induced head twitch, read-out: ED50 FOR ABOLITION OF HEAD TWITCH", "description": "Psychopharmacol., Vol. 3, pages 89-92, (1979). The administration of 5-methoxy-N,N-dimethyltryptamine (DMT) to mice typically produces a characteristic head twitch in the mice. In this test, the mice are administered 5-DMT and a test compound. An absence of head twitches in the mice is considered to be predictive of the ability of the test compound to antagonize the 5HT2 receptor in vivo."}, "5HT2 receptor [2]": {"biological_target": "T2, 5HT2 receptor (Rattus norvegicus, UniProt P14842)", "T2 construct": "from tissue", "T2 sequence (P14842 whole entry)": "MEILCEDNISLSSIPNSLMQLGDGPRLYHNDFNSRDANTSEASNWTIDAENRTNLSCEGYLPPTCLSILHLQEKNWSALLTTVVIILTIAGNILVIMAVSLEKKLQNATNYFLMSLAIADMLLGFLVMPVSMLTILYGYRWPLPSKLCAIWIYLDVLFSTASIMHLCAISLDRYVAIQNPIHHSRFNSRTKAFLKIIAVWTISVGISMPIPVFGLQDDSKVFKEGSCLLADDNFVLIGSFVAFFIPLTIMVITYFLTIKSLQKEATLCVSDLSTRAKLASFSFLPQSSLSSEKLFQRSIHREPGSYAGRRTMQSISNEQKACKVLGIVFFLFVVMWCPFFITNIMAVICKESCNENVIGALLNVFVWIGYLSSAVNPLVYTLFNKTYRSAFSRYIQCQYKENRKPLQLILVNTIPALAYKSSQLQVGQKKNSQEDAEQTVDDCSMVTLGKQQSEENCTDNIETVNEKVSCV", "assay": "[3H] spiroperidol binding test", "description": "In this test, 5HT2 receptors are exposed to both [^3 H] spiroperidol, (a substance known to have a specific affinity for the receptor) and the test compound. The extent to which there is a decrease in binding of the [^3 H] spiroperidol to the receptor is indicative of the affinity of the test compound for the 5HT2 receptor.\n1-(4-Fluorophenyl)-2-[4-[(4-methanesulfonamidophenyl)carbonyl]-1-piperidinyl]-ethanone (Compound #1) and 1-(4-fluorophenyl)-2-[4-[(4-acetamidophenyl)carbonyl]-1-piperidinyl]-ethanone (Compound #2) were tested in this procedure. For comparative purposes, 1-(3-pyridyl)-2-[4 -[(4-methanesulfonamidophenyl)carbonyl]-1-piperidinyl]ethanone (Compound #3) and N-[4-[[1-[2-(4-fluoro phenyl)ethyl]-4-piperidne]carbenyl]phenyl] methane sulfononamide (compound #4) were also tested. Compound #4 was described in European Application 0 320 983, supra, as Example Number 8 and was prepared in that manner."}, "thrombus formation": {"system": "thrombus formation", "conditions": "canine models; Bush et al., Drug Development Research, Vol. 7 (1986); cited from earlier work"}, "[3]": {"system": "rabbit vascular smooth muscle cells", "conditions": "culture of rabbit vascular smooth muscle cells; Araki et al., Atherosclerosis, 83 (1990); cited from earlier work"}, "[4]": {"system": "phospholipase C mediated hydrolysis of phosphoinositides in rabbit vascular smooth muscle cells", "conditions": "Araki et al.; cited from earlier work"}, "[5]": {"system": "coronary vessel constriction", "conditions": "patients with stable angina; Golino et al., NEJM 1991; cited from earlier work"}},
  "note": "pIC50: −log10 of the molar value.",
  "data": [
    {"compound": "CC(=O)Nc1ccc(C(=O)C2CCN(CC(=O)c3ccc(F)cc3)CC2)cc1", "note": "[Compound #2, 1-(4-fluorophenyl)-2-[4-[(4-acetamidophenyl)carbonyl]-1-piperidinyl]-ethanone]", "values": [
      {"measurement": "ED50", "setting": "5HT2 receptor [1]", "value": 0.051, "unit": "mg/kg"}
    ]},
    {"compound": "CS(=O)(=O)Nc1ccc(C(=O)C2CCN(CCc3ccc(F)cc3)CC2)cc1", "note": "[Compound #4, N-[4-[[1-[2-(4-fluorophenyl)ethyl]-4-piperidne]carbenyl]phenyl] methane sulfononamide]", "values": [
      {"measurement": "pIC50", "setting": "5HT2 receptor [2]", "value": 7.00},
      {"measurement": "ED50", "setting": "5HT2 receptor [1]", "value": 0.49, "unit": "mg/kg"}
    ]},
    {"compound": "CS(=O)(=O)Nc1ccc(C(=O)C2CCN(CC(=O)c3cccnc3)CC2)cc1", "note": "[Compound #3, 1-(3-pyridyl)-2-[4-[(4-methanesulfonamidophenyl)carbonyl]-1-piperidinyl]-ethanone]", "values": [
      {"measurement": "ED50", "setting": "5HT2 receptor [1]", "value": "> 200", "unit": "mg/kg"}
    ]},
    {"compound": "O=C(c1ccc(F)cc1)C1CCN(CCn2c(=O)[nH]c3ccccc3c2=O)CC1", "note": "[Ketanserin]", "values": [
      {"measurement": "prevention of thrombus formation", "setting": "thrombus formation", "value": "extremely effective in preventing thrombus formation"},
      {"measurement": "inhibition of PDGF induced DNA synthesis", "setting": "[3]", "value": "inhibited PDGF induced DNA synthesis"},
      {"measurement": "inhibition of phospholipase C mediated hydrolysis of phosphoinositides", "setting": "[4]", "value": "inhibited phospholipase C mediated hydrolysis of phosphoinositides"},
      {"measurement": "block of coronary vessel constriction", "setting": "[5]", "value": "blocked coronary vessel constriction"}
    ]},
    {"compound": "CS(=O)(=O)Nc1ccc(C(=O)C2CCN(CC(=O)c3ccc(F)cc3)CC2)cc1", "note": "[Compound #1, 1-(4-Fluorophenyl)-2-[4-[(4-methanesulfonamidophenyl)carbonyl]-1-piperidinyl]-ethanone]", "values": [
      {"measurement": "ED50", "setting": "5HT2 receptor [1]", "value": 0.034, "unit": "mg/kg"}
    ]}
  ]
}
